# Data as given in patent US20240083900A1, “PYRAZOLO[1,5-A]PYRAZINE DERIVATIVES AS BTK INHIBITORS” (BIOGEN MA INC., priority 2020, published 2024).
# Read-outs that look alike come from different tables or passages of the source.
# How the values were obtained:
# BTK = BTK (Homo sapiens (Human), UniProt Q06187); test: In Vitro BTK Kinase Assay: Btk-PolyGAT-LS Assay; format: biochemical; conditions: BTK enzyme 0.25 nM, ATP 10 μM, polyGAT 100 nM, 30 minutes incubation, TRF readout
# How it was run: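 Human BTK activity was measured with final 10 μM ATP and 100 nM polyGAT substrate in pH 7.5 Tris buffer with 10 mM MgCl2, DTT, Triton X-100 and casein.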
# [1] = tested on: CD69 expression on CD19+ B cells in human whole blood stimulated with anti-human IgD; test: In Vitro whole blood CD69 Assay; format: cell-based
# [2] = Homo sapiens, B-cell, human heparinized whole blood, anti-human IgD stimulation overnight, percentage of CD19+ B cells expressing CD69, flow cytometry, read-out: IC50
# [3] = Homo sapiens, B-cell, human heparinized whole blood, anti-human IgD stimulation overnight, percentage of CD19+ B cells expressing CD69, flow cytometry
# BTK, sequence (Q06187 whole entry): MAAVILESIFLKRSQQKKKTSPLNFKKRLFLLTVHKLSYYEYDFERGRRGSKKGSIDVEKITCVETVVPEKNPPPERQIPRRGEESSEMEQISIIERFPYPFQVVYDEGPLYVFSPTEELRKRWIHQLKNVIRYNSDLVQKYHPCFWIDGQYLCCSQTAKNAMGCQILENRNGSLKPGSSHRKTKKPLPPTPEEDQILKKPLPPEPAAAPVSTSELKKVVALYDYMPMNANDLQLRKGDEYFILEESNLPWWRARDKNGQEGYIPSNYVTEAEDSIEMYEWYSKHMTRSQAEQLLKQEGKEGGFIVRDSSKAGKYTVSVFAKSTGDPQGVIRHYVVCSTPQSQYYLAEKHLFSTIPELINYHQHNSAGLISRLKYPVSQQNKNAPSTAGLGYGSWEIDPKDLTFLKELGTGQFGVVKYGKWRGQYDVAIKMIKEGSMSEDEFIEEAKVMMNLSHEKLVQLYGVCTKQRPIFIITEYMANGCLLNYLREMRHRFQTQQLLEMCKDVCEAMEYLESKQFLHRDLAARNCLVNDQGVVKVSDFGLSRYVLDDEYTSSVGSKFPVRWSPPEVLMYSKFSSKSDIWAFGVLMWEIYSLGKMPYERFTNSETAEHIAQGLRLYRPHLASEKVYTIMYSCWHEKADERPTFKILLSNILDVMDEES
Compound,IC50 (BTK; read-out: IC50) [nM],"IC50 [1, 2] [µM]",also measured
"C=CC(=O)N1CCO[C@@](C)(COc2nc(-c3cnn(C)c3)cn3nccc23)C1 (single isomer, unassigned) [Example 118, (R) or (S)-1-(2-methyl-2-(((6-(1-methyl-1H-pyrazol-4-yl)pyrazolo[1,5-a]pyrazin-4-yl)oxy)methyl)morpholino)prop-2-en-1-one]",< 1,< 1,–
"C=CC(=O)N1CCC[C@@H](Nc2nc(-c3cnn(C)c3)cn3nccc23)CC1 (single isomer, unassigned) [Example 160]",< 1,1 to 10,–
"CC#CC(=O)N(C)[C@H]1CC[C@H]2C[C@@]2(Oc2nc(-c3cnn(C)c3)cn3nccc23)C1 (single isomer, unassigned) [Example 116]",< 1,< 1,–
"C#CC(=O)N1CCC[C@H](COc2nc(-c3cnn(C)c3)cn3nccc23)C1 [Example 16, (S)-1-(3-(((6-(1-methyl-1H-pyrazol-4-yl)pyrazolo[1,5-a]pyrazin-4-yl)oxy)methyl)piperidin-1-yl)prop-2-yn-1-one]",< 1,< 1,–
"C=CC(=O)N1CCCC(Oc2nc(-c3ccnc(OC)c3)cn3nccc23)CC1 (single isomer, unassigned) [Example 72 E1, 1-(4-((6-(2-methoxypyridin-4-yl)pyrazolo[1,5-a]pyrazin-4-yl)oxy)azepan-1-yl)prop-2-en-1-one]",< 1,1 to 10,–
"C=CC(=O)N[C@H]1C[C@@](C)(Oc2nc(-c3cnn(C)c3)cn3ncc(C4CC4)c23)C1 [Example 166, N-((cis)-3-((3-cyclopropyl-6-(1-methyl-1H-pyrazol-4-yl)pyrazolo[1,5-a]pyrazin-4-yl)oxy)-3-methylcyclobutyl)acrylamide]",< 1,< 1,–
"C=CC(=O)N(CC(F)F)[C@H]1CC[C@@H](Oc2nc(-c3cnn(C)c3)cn3nccc23)C1 [Example 146, N-(2,2-difluoroethyl)-N-((1S,3R)-3-((6-(1-methyl-1H-pyrazol-4-yl)pyrazolo[1,5-a]pyrazin-4-yl)oxy)cyclopentyl)acrylamide]",< 1,< 1,–
"C=CC(=O)N1CCC[C@@H](Oc2nc(-c3cnn(C)c3)cn3ncc(C(F)(F)F)c23)CC1 [Example 62, 1-[(4R)-4-[6-(1-methylpyrazol-4-yl)-3-(trifluoromethyl)pyrazolo[1,5-a]pyrazin-4-yl]oxyazepan-1-yl]prop-2-en-1-one]",1 to 10,1 to 10,–
"C=CC(=O)N(C)[C@H]1C[C@@](C)(Oc2nc(-c3cnn(C)c3)cn3nccc23)C1(C)C (single isomer, unassigned) [Example 141]",–,–,"IC50 (BTK; IC50 (nM)): 1 to 10 nM; IC50 ([1]; human heparinized whole blood, anti-human IgD stimulation overnight, percentage of CD19+ B cells expressing CD69, flow cytometry): 1 to 10 µM"
"C=CC(=O)NC12CCC(Oc3nc(-c4cnn(C)c4)cn4nccc34)(CC1)C2 [Example 125, N-(4-((6-(1-methyl-1H-pyrazol-4-yl)pyrazolo[1,5-a]pyrazin-4-yl)oxy)bicyclo[2.2.1]heptan-1-yl)acrylamide]",1 to 10,1 to 10,–
"CC#CC(=O)N[C@H]1CCC[C@@H](Oc2nc(-c3cnn(C)c3)cn3nccc23)C1 [Example 179, N-((1S,3R)-3-((6-(1-methyl-1H-pyrazol-4-yl)pyrazolo[1,5-a]pyrazin-4-yl)oxy)cyclohexyl)but-2-ynamide]",< 1,< 1,–
"C=CS(=O)(=O)N1CCC[C@H](Oc2nc(-c3cnn(C)c3)cn3nccc23)CC1 [Example 33, (S)-6-(1-methyl-1H-pyrazol-4-yl)-4-((1-(vinylsulfonyl)azepan-4-yl)oxy)pyrazolo[1,5-a]pyrazine]",1 to 10,1 to 10,–
C=CC(=O)Nc1cccc(Oc2nc(-c3cnn(C)c3)cc3nccn23)c1 [Example 43],1 to 10,< 1,–
"C=CC(=O)N(C)[C@H]1C[C@@](C)(Oc2nc(-c3cnn(C)c3)cn3nccc23)C1(C)C (single isomer, unassigned) [Example 140]",< 1,–,"IC50 [1, 3]: < 1 µM"
"C#CC(=O)N1CCC[C@H](Oc2nc(-c3cnn(C)c3)cn3nccc23)CC1 [Example 31, (S)-1-(4-((6-(1-methyl-1H-pyrazol-4-yl)pyrazolo[1,5-a]pyrazin-4-yl)oxy)azepan-1-yl)prop-2-yn-1-one]",< 1,1 to 10,–
"C=CC(=O)N(C)[C@H]1C[C@@](C)(Oc2nc(-c3cnn(C)c3)cn3nccc23)[C@H]1C (single isomer, unassigned) [Example 110]",< 1,–,"IC50 [1, 3]: < 1 µM"

Compound,IC50 (BTK; read-out: IC50) [nM],"IC50 [1, 2] [µM]",also measured
"C=CC(=O)N1CC(Oc2nc(-c3cnn(C)c3)cn3nccc23)C1 [Example 9, 1-(3-((6-(1-methyl-1H-pyrazol-4-yl)pyrazolo[1,5-a]pyrazin-4-yl)oxy)azetidin-1-yl)prop-2-en-1-one]",10 to 1000,> 10,–
"CC#CC(=O)N(C)[C@H]1CCC[C@@H](Oc2nc(-c3cnn(C)c3)cn3nccc23)C1 [Example 177, N-methyl-N-((1S,3R)-3-((6-(1-methyl-1H-pyrazol-4-yl)pyrazolo[1,5-a]pyrazin-4-yl)oxy)cyclohexyl)but-2-ynamide]",< 1,< 1,–
"C=CS(=O)(=O)N1CCC[C@@H](Oc2nc(-c3cnn(C)c3)cn3nccc23)C1 [Example 5, (R)-6-(1-methyl-1H-pyrazol-4-yl)-4-((1-(vinylsulfonyl)piperidin-3-yl)oxy)pyrazolo[1,5-a]pyrazine]",< 1,> 10,–
"C#CC(=O)N1CC[C@@H](Oc2nc(-c3cnn(C)c3)cn3nccc23)C1 [Example 13, (R)-1-(3-((6-(1-methyl-1H-pyrazol-4-yl)pyrazolo[1,5-a]pyrazin-4-yl)oxy)pyrrolidin-1-yl)prop-2-yn-1-one]",< 1,< 1,–
"C=CS(=O)(=O)N1CCC[C@H](COc2nc(-c3cnn(C)c3)cn3nccc23)C1 [Example 15, (S)-6-(1-methyl-1H-pyrazol-4-yl)-4-((1-(vinylsulfonyl)piperidin-3-yl)methoxy)pyrazolo[1,5-a]pyrazine]",1 to 10,1 to 10,–
"CC#CC(=O)N(C)[C@H]1CC[C@@H]2C[C@]2(Oc2nc(-c3cnn(C)c3)cn3nccc23)C1 (single isomer, unassigned) [Example 113]",1 to 10,1 to 10,–
"C[C@@H]1O[C@H]1C(=O)N1CC[C@@H]2[C@H]1C[C@@]2(C)Oc1nc(-c2cnn(C)c2)cn2nccc12 [Example 192, ((1R,5R,6R)-6-methyl-6-((6-(1-methyl-1H-pyrazol-4-yl)pyrazolo[1,5-a]pyrazin-4-yl)oxy)-2-azabicyclo[3.2.0]heptan-2-yl)((2R,3S)-3-methyloxiran-2-yl)methanone]",10 to 1000,1 to 10,–
"CC#CC(=O)N(C)[C@@H]1CCC[C@H](Oc2nc(-c3cnn(C)c3)cn3nccc23)C1 [Example 178, N-methyl-N-((1R,3S)-3-((6-(1-methyl-1H-pyrazol-4-yl)pyrazolo[1,5-a]pyrazin-4-yl)oxy)cyclohexyl)but-2-ynamide]",10 to 1000,1 to 10,–
"C=CC(=O)N1CC(C)(C)OC(C)(COc2nc(-c3cnn(C)c3)cn3nccc23)C1 (single isomer, unassigned) [Example 120, 1-(2,2,6-trimethyl-6-(((6-(1-methyl-1H-pyrazol-4-yl)pyrazolo[1,5-a]pyrazin-4-yl)oxy)methyl)morpholino)prop-2-en-1-one]",< 1,< 1,–
"C=CC(=O)N1CCOCC1CCOc1cc(-c2cnn(C)c2)cn2nccc12 (stereo not shown) [Example 81, 1-(3-(2-((6-(1-methyl-1H-pyrazol-4-yl)pyrazolo[1,5-a]pyridin-4-yl)oxy)ethyl)morpholino)prop-2-en-1-one]",1 to 10,1 to 10,–
"C#CC(=O)NCC1CCCN(c2nc(-c3cnn(C)c3)cn3nccc23)C1 (stereo not shown) [Example 25, N-((1-(6-(1-methyl-1H-pyrazol-4-yl)pyrazolo[1,5-a]pyrazin-4-yl)piperidin-3-yl)methyl)propiolamide]",1 to 10,> 10,–
"C#CC(=O)N(C)C1CCCN(c2nc(-c3cnn(C)c3)cc3nccn23)C1 (stereo not shown) [Example 23, N-methyl-N-[1-[7-(1-methylpyrazol-4-yl)imidazo[1,2-c]pyrimidin-5-yl]-3-piperidyl]prop-2-ynamide]",10 to 1000,> 10,–
"C#CC(=O)N1CCC[C@@H](Oc2nc(-c3cnn(C)c3)cn3nccc23)CC1 [Example 30, (R)-1-(4-((6-(1-methyl-1H-pyrazol-4-yl)pyrazolo[1,5-a]pyrazin-4-yl)oxy)azepan-1-yl)prop-2-yn-1-one]",< 1,< 1,–
"C=CC(=O)N1C[C@H]2C[C@@H](C1)[C@@H]2COc1cc(-c2cnn(C)c2)cn2ncc(F)c12 (single isomer, unassigned) [Example 85, 1-((1R,5S,6r) or (1R,5S,6s)-6-(((3-fluoro-6-(1-methyl-1H-pyrazol-4-yl)pyrazolo[1,5-a]pyridin-4-yl)oxy)methyl)-3-azabicyclo[3.1.1]heptan-3-yl)prop-2-en-1-one]",< 1,–,"IC50 ([1]; human heparinized whole blood, anti-human IgD stimulation overnight, percentage of CD19+ B cells expressing CD69, flow cytometry, read-out: IC50): < 1 µM"
"C=CC(=O)NC1CCCN(c2nc(-c3cnn(C)c3)cn3nccc23)C1 (stereo not shown) [Example 20, N-[1-[6-(1-methylpyrazol-4-yl)pyrazolo[1,5-a]pyrazin-4-yl]-3-piperidyl]prop-2-enamide]",10 to 1000,> 10,–
"C=CC(=O)N1CC2(Oc3nc(-c4cnn(C)c4)cn4nccc34)CC1(C)C2 [Example 124, 1-(1-methyl-4-((6-(1-methyl-1H-pyrazol-4-yl)pyrazolo[1,5-a]pyrazin-4-yl)oxy)-2-azabicyclo[2.1.1]hexan-2-yl)prop-2-en-1-one]",1 to 10,–,"IC50 ([1]; Homo sapiens, B-cell): 1 to 10 µM"
